Experimental data as given in patent publication US20220151962A1, “NOVEL INHIBITORS OF HISTONE DEACETYLASE 10” (Deutsches Krebsforschungszentrum, priority 2019, published 2022).

How the values were obtained:
TwinStrep-GST-HDAC10 = target: T1, TwinStrep-GST-HDAC10 (Homo sapiens, UniProt Q969S8); assay: HDAC10 TR-FRET assay (Tubastatin-AF647-Tracer displacement); assay type: binding; settings: TR-FRET, 60 min at rt; read-out: pIC50 HDAC10 FRET (converted)
T1 construct: made in house; host or cells: Sf21 insect cells (baculovirus, pFastBac1)
T1 sequence (Q969S8 1-669): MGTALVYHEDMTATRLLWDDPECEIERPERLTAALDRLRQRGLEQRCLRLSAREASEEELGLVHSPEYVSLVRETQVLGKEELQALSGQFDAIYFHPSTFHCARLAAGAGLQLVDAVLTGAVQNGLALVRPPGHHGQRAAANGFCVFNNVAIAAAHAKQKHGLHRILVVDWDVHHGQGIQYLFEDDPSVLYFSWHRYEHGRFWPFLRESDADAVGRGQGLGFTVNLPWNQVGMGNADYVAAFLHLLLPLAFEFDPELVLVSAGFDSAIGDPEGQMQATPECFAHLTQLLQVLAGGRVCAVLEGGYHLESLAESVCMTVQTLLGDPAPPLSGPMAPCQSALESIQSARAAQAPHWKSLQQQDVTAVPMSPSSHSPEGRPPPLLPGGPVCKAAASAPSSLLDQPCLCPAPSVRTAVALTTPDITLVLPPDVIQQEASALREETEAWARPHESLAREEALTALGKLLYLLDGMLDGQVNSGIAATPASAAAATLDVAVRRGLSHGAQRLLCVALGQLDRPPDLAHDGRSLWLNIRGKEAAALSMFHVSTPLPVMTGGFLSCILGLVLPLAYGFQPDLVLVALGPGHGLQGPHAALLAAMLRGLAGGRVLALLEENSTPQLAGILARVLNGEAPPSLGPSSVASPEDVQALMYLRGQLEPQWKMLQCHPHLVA

HDAC8 = target: T2, HDAC8 (Homo sapiens, UniProt Q9BY41); assay: HDAC-Glo I/II assay, HDAC8; assay type: biochemical; design: purchased BPS Bioscience 50008; settings: recombinant human HDAC8, HDAC-Glo; read-out: pIC50 HDAC8 Glo (converted)
T2 sequence (Q9BY41 1-377): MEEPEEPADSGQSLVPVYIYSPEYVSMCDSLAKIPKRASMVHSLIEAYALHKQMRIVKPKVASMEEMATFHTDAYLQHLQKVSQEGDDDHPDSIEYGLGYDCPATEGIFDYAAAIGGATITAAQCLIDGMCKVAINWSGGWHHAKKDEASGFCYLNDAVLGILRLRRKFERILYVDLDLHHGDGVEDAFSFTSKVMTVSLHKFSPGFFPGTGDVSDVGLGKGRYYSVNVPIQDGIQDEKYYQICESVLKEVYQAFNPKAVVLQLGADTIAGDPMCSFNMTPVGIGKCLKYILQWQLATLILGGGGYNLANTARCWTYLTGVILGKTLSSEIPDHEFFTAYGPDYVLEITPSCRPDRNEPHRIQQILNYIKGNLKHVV

HDAC3/NcoR2 complex = target: T3, HDAC3/NcoR2 complex (Homo sapiens, UniProt O15379); assay: HDAC-Glo I/II assay, HDAC3/NcoR2 complex; assay type: biochemical; settings: recombinant human HDAC3/NcoR2 complex, read-out: pIC50 HDAC3 Glo (converted)
T3 construct: purchased BPS Bioscience 50003
T3 sequence (O15379 whole entry): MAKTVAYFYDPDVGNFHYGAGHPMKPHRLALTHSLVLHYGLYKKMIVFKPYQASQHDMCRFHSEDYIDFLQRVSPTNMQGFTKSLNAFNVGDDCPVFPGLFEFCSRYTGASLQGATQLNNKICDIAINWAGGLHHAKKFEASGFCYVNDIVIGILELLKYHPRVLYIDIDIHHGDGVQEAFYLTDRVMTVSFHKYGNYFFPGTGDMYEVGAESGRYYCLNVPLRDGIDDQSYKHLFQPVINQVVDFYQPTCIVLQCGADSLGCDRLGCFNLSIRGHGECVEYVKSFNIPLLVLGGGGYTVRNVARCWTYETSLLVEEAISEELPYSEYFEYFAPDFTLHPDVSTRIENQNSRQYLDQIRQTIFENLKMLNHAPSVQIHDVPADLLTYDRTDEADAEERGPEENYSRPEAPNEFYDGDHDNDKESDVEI
T3 sequence (Q9Y618 395-489 partner limits assumed): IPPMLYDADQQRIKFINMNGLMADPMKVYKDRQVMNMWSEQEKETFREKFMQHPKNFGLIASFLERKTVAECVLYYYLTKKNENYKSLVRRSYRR

HDAC6 = target: T4, HDAC6 (Homo sapiens, UniProt Q9UBN7); assay: HDAC-Glo I/II assay, HDAC6; assay type: biochemical; settings: recombinant human HDAC6, HDAC-Glo; read-out: pIC50 HDAC6 Glo (converted)
T4 construct: purchased BPS Bioscience 50006
T4 sequence (Q9UBN7 1-1215): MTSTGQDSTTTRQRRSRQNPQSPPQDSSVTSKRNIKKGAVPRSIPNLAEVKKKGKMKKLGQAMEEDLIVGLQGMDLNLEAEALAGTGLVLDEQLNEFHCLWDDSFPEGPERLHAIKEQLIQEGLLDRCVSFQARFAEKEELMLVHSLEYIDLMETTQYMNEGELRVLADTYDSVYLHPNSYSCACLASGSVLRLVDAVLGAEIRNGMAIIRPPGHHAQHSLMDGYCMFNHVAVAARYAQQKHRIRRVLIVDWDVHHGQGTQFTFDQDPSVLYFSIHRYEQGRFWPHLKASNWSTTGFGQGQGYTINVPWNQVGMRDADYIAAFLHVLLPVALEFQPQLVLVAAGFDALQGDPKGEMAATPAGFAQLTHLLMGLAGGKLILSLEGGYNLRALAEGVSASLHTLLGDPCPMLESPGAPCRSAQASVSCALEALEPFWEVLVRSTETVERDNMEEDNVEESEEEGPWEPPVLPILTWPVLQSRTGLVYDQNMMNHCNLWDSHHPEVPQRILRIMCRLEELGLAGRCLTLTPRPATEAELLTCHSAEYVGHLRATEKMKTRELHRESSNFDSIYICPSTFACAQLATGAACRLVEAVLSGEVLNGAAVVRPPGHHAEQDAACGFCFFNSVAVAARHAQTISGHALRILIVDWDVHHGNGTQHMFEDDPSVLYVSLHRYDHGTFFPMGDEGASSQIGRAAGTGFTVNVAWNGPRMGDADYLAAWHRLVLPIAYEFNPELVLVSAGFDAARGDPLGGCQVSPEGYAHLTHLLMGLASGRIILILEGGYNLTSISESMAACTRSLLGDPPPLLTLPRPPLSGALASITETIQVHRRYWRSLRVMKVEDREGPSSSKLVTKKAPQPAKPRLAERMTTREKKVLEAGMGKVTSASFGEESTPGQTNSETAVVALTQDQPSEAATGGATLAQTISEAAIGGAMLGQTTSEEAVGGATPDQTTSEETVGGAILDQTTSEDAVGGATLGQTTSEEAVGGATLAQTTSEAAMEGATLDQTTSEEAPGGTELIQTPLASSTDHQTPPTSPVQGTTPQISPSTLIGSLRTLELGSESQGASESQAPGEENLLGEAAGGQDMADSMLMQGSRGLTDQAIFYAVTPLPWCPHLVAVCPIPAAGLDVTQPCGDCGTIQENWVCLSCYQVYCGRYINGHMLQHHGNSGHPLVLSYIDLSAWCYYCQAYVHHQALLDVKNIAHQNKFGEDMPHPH

[1] = target: T5, HDAC10-nanoluciferase fusion in HeLa cells (Homo sapiens, UniProt Q969S8); assay: BRET intracellular target engagement assay, HDAC10; settings: for HDAC10/6 fold selectivity (BRET): HDAC10 over HDAC6, from BRET
T5 sequence (Q969S8 1-669): T1 sequence (Q969S8 1-669)

HDAC1 = target: T6, HDAC1 (Homo sapiens, UniProt Q13547); assay: HDAC-Glo I/II assay, HDAC1; assay type: biochemical; settings: recombinant human HDAC1, HDAC-Glo; read-out: pIC50 HDAC1 Glo (converted)
T6 construct: purchased BPS Bioscience 50051
T6 sequence (Q13547 whole entry): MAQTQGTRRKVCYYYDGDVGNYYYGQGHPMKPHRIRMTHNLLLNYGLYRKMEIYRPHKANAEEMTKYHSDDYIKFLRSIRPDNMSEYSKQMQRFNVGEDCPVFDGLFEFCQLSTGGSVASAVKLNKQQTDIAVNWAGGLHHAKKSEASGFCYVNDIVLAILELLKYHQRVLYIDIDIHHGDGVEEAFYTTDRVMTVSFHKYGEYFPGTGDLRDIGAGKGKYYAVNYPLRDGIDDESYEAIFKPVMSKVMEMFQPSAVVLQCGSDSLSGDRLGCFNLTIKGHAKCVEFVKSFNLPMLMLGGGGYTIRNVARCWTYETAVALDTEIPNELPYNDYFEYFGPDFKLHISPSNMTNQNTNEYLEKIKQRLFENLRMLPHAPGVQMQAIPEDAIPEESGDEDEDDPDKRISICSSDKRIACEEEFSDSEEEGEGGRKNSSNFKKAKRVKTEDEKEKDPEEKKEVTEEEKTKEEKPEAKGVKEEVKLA

HDAC2 = target: T7, HDAC2 (Homo sapiens, UniProt Q92769); assay: HDAC-Glo I/II assay, HDAC2; assay type: biochemical; settings: recombinant human HDAC2, HDAC-Glo; read-out: pIC50 HDAC2 Glo (converted)
T7 construct: purchased BPS Bioscience 50002
T7 sequence (Q92769 whole entry): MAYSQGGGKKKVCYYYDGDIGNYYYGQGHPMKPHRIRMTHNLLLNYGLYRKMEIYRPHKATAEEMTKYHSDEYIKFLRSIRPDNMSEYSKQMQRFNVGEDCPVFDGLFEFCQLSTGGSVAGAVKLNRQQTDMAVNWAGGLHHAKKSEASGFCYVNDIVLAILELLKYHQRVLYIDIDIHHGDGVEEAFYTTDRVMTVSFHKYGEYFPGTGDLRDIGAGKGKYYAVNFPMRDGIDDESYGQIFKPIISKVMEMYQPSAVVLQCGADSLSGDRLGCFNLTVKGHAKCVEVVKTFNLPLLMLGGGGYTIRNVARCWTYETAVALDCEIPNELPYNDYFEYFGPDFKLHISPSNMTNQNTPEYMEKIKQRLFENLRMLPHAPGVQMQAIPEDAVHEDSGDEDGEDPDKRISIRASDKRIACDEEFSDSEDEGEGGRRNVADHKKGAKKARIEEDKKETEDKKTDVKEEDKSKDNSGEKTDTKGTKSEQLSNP

[2] = target: T8, HDAC6 (2nd catalytic domain)-nanoluciferase fusion in HeLa cells (Homo sapiens, UniProt Q9UBN7); assay: BRET intracellular target engagement assay, HDAC6
T8 sequence (Q9UBN7 482-800 limits assumed): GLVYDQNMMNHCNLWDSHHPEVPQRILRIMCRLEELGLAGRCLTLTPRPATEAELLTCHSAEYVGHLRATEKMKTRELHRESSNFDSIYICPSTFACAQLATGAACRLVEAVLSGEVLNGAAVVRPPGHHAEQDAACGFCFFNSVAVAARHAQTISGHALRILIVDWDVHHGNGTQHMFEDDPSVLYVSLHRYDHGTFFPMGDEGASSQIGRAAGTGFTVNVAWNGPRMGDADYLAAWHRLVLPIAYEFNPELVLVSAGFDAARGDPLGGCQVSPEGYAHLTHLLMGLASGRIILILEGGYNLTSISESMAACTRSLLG

[3] = Solubility in water (observation during purification); assay type: physicochemical
[4] = Stability on exposure to air (observation); assay type: physicochemical; settings: especially in solution

IC50 (TwinStrep-GST-HDAC10) [µM]	IC50 (HDAC8) [µM]	IC50 (HDAC3/NcoR2 complex) [µM]	IC50 (HDAC6) [µM]	IC50 [1] [µM]	HDAC10/6 fold selectivity (BRET) [1] [fold]	IC50 (HDAC1) [µM]	IC50 (HDAC2) [µM]	IC50 [2] [µM]	solubility in water [3]	stability when exposed to air [4]	SMILES
0.631	7.94	~200	5.01	1.58	38	79.4	> 200	> 39.8			CCCCN(CCCC(=O)NO)CCC(=O)Nc1ccccc1 [DKFZ-717, 4-(Butyl(3-oxo-3-(phenylamino)propyl)amino)-N-hydroxybutanamide]
0.631	5.01	< 200	12.6	2	>21	398	> 200	> 39.8			CC(C)N(CCCC(=O)NO)CCC(=O)Nc1ccccc1 [DKFZ-715, 4-(Isopropyl(3-oxo-3-(phenylamino)propyl)amino)-N-hydroxybutanamide]
0.251	2	126	3.16	0.398	>110	39.8	> 200	> 39.8			O=C(CCCN(CCC(=O)Nc1ccccc1)C1CC1)NO [DKFZ-724, 4-(Cyclopropyl(3-oxo-3-(phenylamino)propyl)amino)-N-hydroxybutanamide]
0.398	> 100	> 100	> 100	31.6	>1	> 100	> 100	> 39.8	poorly soluble in water		C[N+](C)(CCCC(=O)[N-]O)CCNC(=O)c1ccccc1 [DKFZ-777, (4-((2-Benzamidoethyl)dimethylammonio)butanoyl)(hydroxy)amide]
0.00316	1.26	> 100	2.51	0.0316	398	6.31	12.6	~12.6			COc1ccc(C(=O)NCCN(C)CCCC(=O)NO)c2ccccc12 [DKFZ-774, N-(2-((4-(Hydroxyamino)-4-oxobutyl)(methyl)amino)ethyl)-4-methoxy-1-naphthamide]
0.02	~25.1	> 100	6.31	2	>21	15.8	> 100	> 39.8			CN(CCCC(=O)NO)CCNC(=O)c1ccc(/C(N)=N/O)cc1 [DKFZ-750, N-(2-((4-(Hydroxyamino)-4-oxobutyl)(methyl)amino)ethyl)-4-(M-hydroxycarbamimidoyl)benzamide]
0.00794	~25.1	> 100	6.31	0.0631	423	10	> 100	25.1			CN(CCCC(=O)NO)CCNC(=O)c1cccc2cn[nH]c12 [DKFZ-757, N-(2-((4-(Hydroxyamino)-4-oxobutyl)(methyl)amino)ethyl)-1H-indazole-7-carboxamide]
0.0126	> 100	> 100	3.98			12.6	12.6			form the disulfide when exposed to air	CN(CCNC(=O)CS)CCNC(=O)c1ccccc1 [DKFZ-825, N-(2-((2-(2-Mercaptoacetamido)ethyl)(methyl)amino)ethyl)benzamide]
0.158	20	> 100	6.31	2	>20	50.1	79.4	> 39.8			O=C(CC1CN(CCC(=O)Nc2ccccc2)C1)NO [DKFZ-770, 3-(3-(2-(Hydroxyamino)-2-oxoethyl)azetidin-1-yl)-N-phenylpropanamide]
